Entries after “also recorded” stand apart in the source; their conditions may differ.

Test [1] deals with RAGE-expressing SH-SY5Y cells. Nature of the test: Tau infection (intracellular DyLight 488-tau oligomers) in RAGE-expressing SH-SY5Y cells. It counts as cell-based, human. As to conditions: increasing concentrations of antagonist, 4 hours, 500 nM DyLight 488-tau oligomers. The protocol: (right) for 4 hours in the presence of 500 nM DyLight 488-tau or 125 nM FITC-Aβ42 oligomers. Fluorescence images were acquired, and intracellular DyLight 488 and FITC intensities were measured. The data were presented as mean±SEM (n=4).

The next test has as its system rTg4510 mice. Nature of the test: Behavioral tests (Y-maze, novel object recognition, passive avoidance) in rTg4510 mice. It counts as in vivo, mouse. As to conditions: 1 mg/kg/day intraperitoneally, daily for 2.5 months from 2 months of age; tests at 4.5 months.
For test [2], the system named is primary cortical neurons or hippocampal neurons. Nature of the test: Tau infection assay in primary cultured neurons. Particulars: 500 nM DyLight 488-tau oligomers, 24 hours.
In a further test the target is T1, RAGE (Homo sapiens, UniProt Q15109).
T1 construct: RFP-tagged RAGE full-length (FL) or cytoplasmic domain deletion mutants (ΔCyto); expressed in transfected cells; host or cells: SH-SY5Y human neuroblastoma cells
Nature of the test: Cell binding assay and calculation of dissociation constant (Kd) for RAGE binding. As to conditions: monomer equivalents of total Aβ42 or total tau; biotin-labeled oligomers, RAGE-overexpressing SH-SY5Y cells, 2 hours. The protocol: FIG. 2c is a graph showing the results of analyzing RAGE binding affinities of tau oligomers (oTau) and Aβ42 oligomers (oAβ42). RAGE-overexpressing SH-SY5Y cells were treated with biotin-tau or Aβ42 oligomers for 2 hours, and the cell-bound biotin signal intensities in FIG. 12a were measured. The data were presented as mean±SEM (n=3-5), and the Kd of binding values were obtained from nonlinear regression analysis of saturated binding.
The purified tau monomers of the present invention were biotinylated using the Ez-Link Sulfo-NHS-LC-Biotinylation kit (Thermo Scientific) and then fibrillated as described above to form oligomers and fibrils. SH-SY5Y cells were transfected with RAGE cDNA for 24 hours and incubated with biotin-tau protein for 2 hours. Primary cortical neurons from WT and Rage KO mice (DIV 7) were then incubated with various concentrations of biotin-tau oligomers for 24 hours to estimate the Kd value for tau binding to RAGE. Cells were washed with Tris-buffered saline (TBS) and fixed with 4% paraformaldehyde for 20 min. The cells were then blocked with 10% FBS and 0.1% Triton X-100 in TBS for 1 hour and incubated with streptavidin-alkaline phosphatase conjugate (1:2000, Roche) at 4° C. for 16 hours. After washing with TBS, bound biotin-tau was visualized for 10 min using the […] liquid substrate system (Sigma-Aldrich). Images were acquired using INCell Analyzer 2000, and cell-bound biotin signals were measured using Image J. Kd values estimated for RAGE-binding were obtained from nonlinear regression analysis of saturated binding using Prism (GraphPad Software).

In test [3] the target is human RAGE (receptor for advanced glycation end products), full-length, overexpressed in SH-SY5Y cells (human) (UniProt Q15109). The test is described as follows: cell-based or functional assay.
The subject of test [4] is RAGE-overexpressing SH-SY5Y cells. The test is described as follows: Competition of tau oligomers and Aβ42 oligomers for uptake in RAGE-overexpressing SH-SY5Y cells. It counts as cell-based, human. Particulars: increasing concentrations of DyLight 594-tau oligomers with 125 nM FITC-Aβ42 oligomers, 2 hours. The protocol: FIG. 12b is a graph showing the results of analyzing […] and FITC intensities in RAGE-overexpressing SH-SY5Y cells. The cells were treated with increasing concentrations of DyLight 594-tau oligomers (red) in the presence of 125 nM FITC-Aβ42 oligomers (green) for 2 hours. Fluorescence images were acquired, and intracellular DyLight 594 and FITC intensities were measured. The data were presented as mean±SEM (n=3).

In test [5] the target is T2, high molecular weight (HMW, 10-20 units) tau oligomers of 6xHis tagged human 0N4R tau (human, UniProt P10636-6 1-383, biotinylated or labelled with DyLight 488, depending on the assay; sites not stated).
T2 construct: also called HMW tau oligomers; not shown: 6xHis tag from the pET-His vector
The test is described as follows: cell binding assay: biotin-labelled HMW tau oligomers for 24 h on primary cortical neurons, streptavidin-alkaline phosphatase, BCIP/NBT; nonlinear regression of saturation binding; dashed ΔRage curve, whose points equal WT minus Rage KO; concentration as tau monomer equivalent.

The target in test [6] is T3, low molecular weight (LMW, 2-4 units) tau oligomers of 6xHis tagged human 0N4R tau (human, UniProt P10636-6 1-383, biotinylated or labelled with DyLight 488, depending on the assay; sites not stated).
T3 construct: also called LMW tau oligomers; not shown: 6xHis tag from the pET-His vector
The test is described as follows: cell binding assay: biotin-labelled LMW tau oligomers for 24 h on primary cortical neurons, streptavidin-alkaline phosphatase, BCIP/NBT; nonlinear regression of saturation binding; dashed ΔRage curve, whose points equal WT minus Rage KO; concentration as tau monomer equivalent.

T1 sequence (Q15109 23-404): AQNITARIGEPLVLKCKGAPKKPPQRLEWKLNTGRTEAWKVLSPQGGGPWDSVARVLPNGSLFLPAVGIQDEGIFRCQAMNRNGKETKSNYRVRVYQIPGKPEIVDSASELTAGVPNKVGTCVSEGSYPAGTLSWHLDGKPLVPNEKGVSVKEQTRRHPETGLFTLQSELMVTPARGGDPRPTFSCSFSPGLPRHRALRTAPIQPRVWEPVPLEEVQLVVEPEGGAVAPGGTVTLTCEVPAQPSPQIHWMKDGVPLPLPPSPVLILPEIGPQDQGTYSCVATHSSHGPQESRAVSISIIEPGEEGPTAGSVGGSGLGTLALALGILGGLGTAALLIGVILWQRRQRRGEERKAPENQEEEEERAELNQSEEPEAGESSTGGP
T3 sequence (P10636 other isoform, or with tags, fused parts or gaps): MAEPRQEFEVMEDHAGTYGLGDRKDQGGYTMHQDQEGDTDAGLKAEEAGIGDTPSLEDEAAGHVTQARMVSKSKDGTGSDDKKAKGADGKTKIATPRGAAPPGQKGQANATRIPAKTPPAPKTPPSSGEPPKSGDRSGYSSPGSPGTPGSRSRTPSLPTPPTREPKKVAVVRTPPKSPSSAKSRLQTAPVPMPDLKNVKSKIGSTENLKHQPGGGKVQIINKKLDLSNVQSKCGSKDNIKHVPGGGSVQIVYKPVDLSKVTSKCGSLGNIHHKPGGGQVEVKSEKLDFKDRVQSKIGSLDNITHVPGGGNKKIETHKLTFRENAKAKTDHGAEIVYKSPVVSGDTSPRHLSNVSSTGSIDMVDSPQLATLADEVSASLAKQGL
T2 sequence (P10636 other isoform, or with tags, fused parts or gaps): as above
Chain of human RAGE (receptor for advanced glycation end products), full-length, overexpressed in SH-SY5Y cells (human) (Q15109 23-404): as the sequence (Q15109 23-404) above

Consider `O=C(c1ccc(Cl)cc1)N(Cc1ccccc1)C1CCCCC1` [FPS-ZM1], for which the “tau infection into RAGE-expressing SH-SY5Y cells” value in test [1] is recorded as “inhibited tau infection”. Also, in the test on rTg4510 mice, the “cognitive function (spatial and working memory) of rTg4510 mice” value is “significantly alleviated cognitive impairment; also recorded: significant retention of spatial and working memory; also recorded: ameliorated the behavioral impairment”. Also, the “tau infection into neurons” value in test [2] (WT cortical neurons, 1 μM antagonist) was “inhibited tau infection; also recorded: reduces neuronal tau infection”.
The Kd is the constant that tells how readily two partners part at equilibrium. On to “Aβ42 oligomers: oligomers prepared from synthetic biotin- or FITC-labeled Aβ42 peptide (rPeptide)”, for which the Kd with RAGE is 17 nM.
“DyLight 488-tau aggregates (His-tagged human tau aggregated with heparin, used in the cDNA screen) (from UniProt P10636 1-383) (ligand)”: the Intracellular DyLight 488 Intensities (AU) in test [3] came out at 9.55 AU.
As for “HMW tau oligomers: high molecular weight tau oligomers (10-20 units) of recombinant human 0N4R tau”, in the test with RAGE, the Kd is 51 nM.
Still for that read-out and setting: under “LMW tau oligomers: low molecular weight tau oligomers (2-4 units) of recombinant human 0N4R tau” stands 205 nM.
With heparin, the “tau oligomer transfection into Rage KO neurons” value in test [2] (Rage KO neurons, 15 U/ml heparin) is on record as “efficiently blocked”. The “neuronal uptake of tau oligomers into WT neurons” value in test [2] (WT neurons, 15 U/ml heparin) is given as “reduced neuronal uptake of tau oligomers”.
For “tau oligomers: oligomers of recombinant 6×His tagged human 0N4R tau formed with heparin”, the “intracellular transfection of Aβ42 oligomers” value in test [4] is given as “efficiently reduced the intracellular transfection of Aβ42 oligomers”.

B1: mouse RAGE, endogenous, on primary cultured WT mouse neurons (against Rage KO neurons) (receptor, UniProt Q62151 23-402, looked up)
chain: GQNITARIGEPLVLSCKGAPKKPPQQLEWKLNTGRTEAWKVLSPQGGPWDSVARILPNGSLLLPATGIVDEGTFRCRATNRRGKEVKSNYRVRVYQIPGKPEIVDPASELTASVPNKVGTCVSEGSYPAGTLSWHLDGKLLIPDGKETLVKEETRRHPETGLFTLRSELTVIPTQGGTHPTFSCSFSLGLPRRRPLNTAPIQLRVREPGPPEGIQLLVEPEGGIVAPGGTVTLTCAISAQPPPQVHWIKDGAPLPLAPSPVLLLPEVGHEDEGTYSCVATHPSHGPQESPPVSIRVTETGDEGPAEGSVGESGLGTLALALGILGGLGVVALLVGAILWRKRQPRREERKAPESQEDEEERAELNQSEEAEMPENGAGGP
notes: whole, on cells
As for B1, the values for the Kd in test [5] and in test [6] were 25 nM and 43.5 nM, respectively.

Values taken from patent US20250389714A1, “PHARMACEUTICAL COMPOSITION FOR TREATING DISEASES RELATED TO TAUOPATHY” (SEOUL NATIONAL UNIVERSITY R&DB FOUNDATION, priority 2021, published 2025).
